Source: patent publication US12433908B2, “Use of nicotinamide riboside, nicotinic acid riboside, and nicotinamide mononucleotide, reduced nicotinyl compounds, and nicotinoyl compound derivatives in infant formula for healthy development” (ChromaDex, Inc., priority 2016, dated 2025)

Assay: CBC analysis of piglets given NR solution
Assay type: in vivo, piglets (Yorkshire/Hampshire crossbred)
Source text: Sixteen (n=16) Yorkshire/Hampshire crossbred piglets were obtained from the University of California, Davis Swine Teaching and Research Center and received on lactation day (“LD”) 14. Prior to arrive, the piglets were processed by the suppler between 1-3 days of age by administration of iron and an antibiotic ([…] for swine) as is common practice at the University of California, Davis Swine Facility. It is not common practice at the University of California, Davis Swine Facility to give a second dose of iron and antibiotics unless it becomes necessary. The piglets were from two litters (litters 15 and 17), weaned at 17 days of age, and randomly placed into one of two groups balanced for litter, sex, and weight. The animals were not acclimated to the facility at arrival and were subsequently acclimated to the test diet administration system. The piglets were weaned into a temperature-controlled room (approximately 27-29° C.) that contained 10 adjacent pens. The piglets were group-housed in the nursery room at the Swine Facility, which is an enclosed room with access restricted to trained personnel. The two groups were separated by one pen containing piglets of similar age. Each morning enough nicotinamide riboside (NR, I) in water solution was prepared for that day's dose administration according to the dose preparation protocol. At least 5 mL of prepared dose was reserved and immediately frozen after preparation each day for analysis of nicotinamide riboside (NR, I) for the purpose of confirming stability of the dose material. The doses were stored at refrigeration temperature while not in use. Nicotinamide riboside (NR, I) was dosed once per day in the morning and at the same time each day. Piglets in the control group received the same volume of plain water and were dosed on the same schedule. Starting on Day 1, animals in the nicotinamide riboside (NR, I) group were dosed once daily (in the morning) with 277 mg nicotinamide riboside (NR, I) per pig resuspended in water for seven days. After one week, animals were dosed once daily with 342 mg nicotinamide riboside (NR, I) per pig delivered in 2.5 mL for seven days. For Days 1 and 2, the nicotinamide riboside (NR, I) solution was prepared by resuspending 2770 mg nicotinamide riboside (NR, I) in 50 mL water, and 5 mL of this solution was delivered to each pig by squirting it into the back of the mouth using a 10 mL syringe with a piece of tubing attached to the end. To reduce the volume to more efficiently deliver the nicotinamide riboside (NR, I) solution, the 2770 mg was resuspended in 25 mL water and 2.5 mL of the solution was squirted into the back of the mouth of each pig using a 3 mL syringe for Days 3-7. For Days 8-14, 3420 mg nicotinamide riboside (NR, I) was resuspended in 25 mL water and 2.5 mL of this solution was delivered to each pig. Each day prior to dosing, 2.5 mL of the nicotinamide riboside (NR, I) (5 mL on Days 1 and 2) were placed into a separate tube and frozen. Blood was collected from each pig via jugular venipuncture on Days 1, 8, and 14. In each instance, blood was collected prior to dosing with nicotinamide riboside (NR, I). On Day 1, the sow was removed from the piglets for approximately three hours prior to sample collection. On Days 8 and 14, feed was removed from the animals' pens 12 hours prior to sample collection. Blood was collected into purple-top vacutainers for CBC analysis and into red-top vacutainers for blood chemistry analysis. CBC analysis was performed at IDEXX Laboratories in West Sacramento, California using the Sysmex XT-iV Vet Hematology Autoanalyzer (Sysmex America Inc., Lincolnshire, Illinois). Red-top tubes were spun to collect serum and the serum frozen. Frozen aliquots (500 μL) were submitted to the University of California, Davis Veterinary medicine Teaching Hospital Clinical Diagnostic Laboratory for Blood Chemistry Analysis using the Cobas 6000 C501 Clinical Chemistry Analyzer (Roche Diagnostics, Indianapolis, IN). […]

[1] = Wk 1, 277 mg/pig once daily oral
[2] = Wk 2, 342 mg/pig once daily oral Days 8-14

Compound: NC(=O)c1ccc[n+]([C@@H]2O[C@H](CO)[C@@H](O)[C@H]2O)c1 [NR, Nicotinamide riboside]
- Basophils, % (Baseline, before dosing): 0.57%
- Basophils, count (Baseline, before dosing): 60 cells/μL
- Eosinophils, % (Baseline, before dosing): 1.11%
- Eosinophils, count (Baseline, before dosing): 108 cells/μL
- HCT (Baseline, before dosing): 29.9%
- HGB (Baseline, before dosing): 10.4 g/dL
- Lymphocytes, % (Baseline, before dosing): 65.8%
- Lymphocytes, count (Baseline, before dosing): 6.48 ×10^3 cells/μL
- MCH (Baseline, before dosing): 16.0 pg
- MCHC (Baseline, before dosing): 34.3 g/dL
- MCV (Baseline, before dosing): 46.2 fL
- Monocytes, % (Baseline, before dosing): 6.17%
- Monocytes, count (Baseline, before dosing): 596 cells/μL
- Neutrophil/Lymphocyte (Baseline, before dosing): 0.41
- Neutrophils, % (Baseline, before dosing): 26.3%
- Neutrophils, count (Baseline, before dosing): 2.47 ×10^3 cells/μL
- RBC (Baseline, before dosing): 6.45 M/μL
- WBC (Baseline, before dosing): 9.7 ×10^3 cells/μL
- Basophils, % [1]: 0.49%
- Basophils, count [1]: 68 cells/μL
- Eosinophils, % [1]: 1.52%
- Eosinophils, count [1]: 213 cells/μL
- HCT [1]: 27.3%
- HGB [1]: 9.4 g/dL
- Lymphocytes, % [1]: 51.0%
- Lymphocytes, count [1]: 6.34 ×10^3 cells/μL
- MCH [1]: 15.4 pg
- MCHC [1]: 34.7 g/dL
- MCV [1]: 44.7 fL
- Monocytes, % [1]: 6.01%
- Monocytes, count [1]: 803 cells/μL
- Neutrophil/Lymphocyte [1]: 0.85
- Neutrophils, % [1]: 40.9%
- Neutrophils, count [1]: 5.41 ×10^3 cells/μL
- RBC [1]: 6.06 M/μL
- WBC [1]: 12.8 ×10^3 cells/μL
- Basophils, % [2]: 0.30%
- Basophils, count [2]: 61 cells/μL
- Eosinophils, % [2]: 1.07%
- Eosinophils, count [2]: 179 cells/μL
- HCT [2]: 26%
- HGB [2]: 9.4 g/dL
- Lymphocytes, % [2]: 54.9%
- Lymphocytes, count [2]: 10.31 ×10^3 cells/μL
- MCH [2]: 15.5 pg
- MCHC [2]: 35.2 g/dL
- MCV [2]: 44.2 fL
- Monocytes, % [2]: 6.80%
- Monocytes, count [2]: 1336 cells/μL
- Neutrophil/Lymphocyte [2]: 0.73
- Neutrophils, % [2]: 36.9%
- Neutrophils, count [2]: 7.59 ×10^3 cells/μL
- RBC [2]: 6.11 M/μL
- WBC [2]: 19.5 ×10^3 cells/μL
- CBC and serum chemistries, NR vs. control (baseline and weekly for the 2-week intervention): no statistically significant differences
